For one test, the target named is T1, FPRL1 (Homo sapiens, UniProt P25090).
T1 construct: expressed in transfected cells; host or cells: CHO-Gal6 (CHO cells with G alpha 16)
T1 sequence (P25090 1-351): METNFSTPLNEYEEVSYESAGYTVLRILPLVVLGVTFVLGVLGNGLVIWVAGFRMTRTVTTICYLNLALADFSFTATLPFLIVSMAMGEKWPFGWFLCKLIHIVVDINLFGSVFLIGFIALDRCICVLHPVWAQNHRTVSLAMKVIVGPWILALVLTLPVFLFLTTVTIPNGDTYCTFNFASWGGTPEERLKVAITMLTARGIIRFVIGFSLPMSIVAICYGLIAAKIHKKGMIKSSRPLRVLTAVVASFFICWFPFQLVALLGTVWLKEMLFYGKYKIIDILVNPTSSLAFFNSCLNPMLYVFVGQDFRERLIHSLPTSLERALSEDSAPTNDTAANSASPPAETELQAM
Briefly: compound-induced calcium activity on FLIPR Tetra in CHO-Gal6 cells stably expressing FPRL1. The conditions noted are these: calcium, FLIPR Tetra; for EC50: tested 0.61 to 10,000 nM, read-out: FPRL1 EC50; for FPRL1 (rel. eff.): relative efficacy. The test is classed as cell-based. How it is done:
(§1) CHO-Gal6 cells stably expressing FPRL1 were cultured in (F12, 10% FBS, 1% PSA, 400 μg/ml geneticin and 50 μg/ml hygromycin) and HEK-Gqi5 cells stable expressing FPR1 were cultured in (DMEM high glucose, 10% FBS, 1% PSA, 400 μg/ml geneticin and 50 μg/ml hygromycin). In general, the day before the experiment, 18,000 cells/well were plated in a 384-well clear bottom poly-d-lysine coated plate. The following day the screening compound-induced calcium activity was assayed on the FLIPR^Tetra. The drug plates were prepared in 384-well microplates using the EP3 and the MultiPROBE robotic liquid handling systems. Compounds were tested at concentrations ranging from 0.61 to 10,000 nM. Results are expressed as EC50 (nM) and efficacy values.

A further test has as its target T2, FPR1 (Homo sapiens, UniProt P21462).
T2 construct: expressed in transfected cells; host or cells: HEK-Gqi5 (HEK cells with chimeric G protein Gqi5)
T2 sequence (P21462 1-350): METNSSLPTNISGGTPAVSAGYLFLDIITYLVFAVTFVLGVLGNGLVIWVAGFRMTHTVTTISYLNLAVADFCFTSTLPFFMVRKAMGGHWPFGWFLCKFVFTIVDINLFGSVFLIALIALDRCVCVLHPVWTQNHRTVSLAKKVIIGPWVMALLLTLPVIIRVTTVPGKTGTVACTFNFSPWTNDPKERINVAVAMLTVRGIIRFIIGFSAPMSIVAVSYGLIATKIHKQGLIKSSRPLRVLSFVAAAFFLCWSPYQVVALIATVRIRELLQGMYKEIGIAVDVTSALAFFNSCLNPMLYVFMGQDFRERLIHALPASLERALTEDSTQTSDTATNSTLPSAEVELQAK
Briefly: compound-induced calcium activity on FLIPR Tetra in HEK-Gqi5 cells stable expressing FPR1. The conditions noted are these: for FPR1 (rel. eff.): relative efficacy. The arrangement: FPR1 (rel. eff.): scale not given here. It is filed as cell-based. How it is done: as §1

Where [1] appears, read: class symbol NA, read-out: FPR1 EC50 (NA = Not Active).
Setting [2] is: calcium, FLIPR Tetra, tested 0.61 to 10,000 nM, read-out: FPR1 EC50.

Where two headings read alike, the source gives them in different places.

A word on the EC50: it is the midpoint of the concentration-response curve. With `NC(=O)C1C(C(=O)Nc2ccc(Br)cc2)C2CCC1C21CC1` (racemic) [Compound 46A], on FPRL1, the EC50 turned out to be 6520 nM and the “FPRL1 (rel. eff.)” value came out at 0.85. At FPR1 (setting [1]), the EC50 was above 10000 nM.

In the case of “(+/−)-(1S,2R,3S,4R)—N^2-(4-Bromophenyl)-N^3-methoxyspiro[bicyclo[2.2.1]heptane-7,1′-cyclopropane]-2,3-dicarboxamide [Compound 80]”, on FPRL1, the EC50 came out at 55.9 nM and the “FPRL1 (rel. eff.)” value is 0.97. In addition, the EC50 at FPR1 (setting [1]) is above 10000 nM.

On to “(+/−)-(1R,2S,3R,4S)-3-((4-(Methylsulfonyl)phenyl)carbamoyl)spiro[bicyclo[2.2.1]-heptane-7,1′-cyclopropane]-2-carboxylic Acid [Compound 71]”, for which, at FPR1 (setting [1]), the EC50 was above 10000 nM.

As for `O=C(O)C1C(C(=O)Nc2ccc(Br)cn2)C2C=CC1C21CC1` (racemic) [Compound 25, (+/−)-(1S,4R,5S,6R)-6-(5-Bromo-2-pyridylcarbamoyl)spiro[bicyclo[2.2.1]hept[2]ene-7,1′-cyclopropane]-5-carboxylic Acid], the EC50 on FPRL1 is 149 nM; on FPR1 (setting [1]), above 10000 nM. The “FPRL1 (rel. eff.)” value on FPRL1 came out at 0.74.

For the compound `CN(C(=O)[C@H]1[C@@H](C(=O)O)[C@H]2CC[C@@H]1C21CC1)c1ccc(Br)cc1` (racemic) [Compound 88, (+/−)-(1S,2R,3S,4R)-2-((4-Bromophenyl)(methyl)carbamoyl)spiro[bicyclo[2.2.1]heptane-7,1′-cyclopropane]-3-carboxylate], on FPRL1, the half-maximal effective concentration (EC50) was determined as 410 nM and the “FPRL1 (rel. eff.)” value is 0.94. Further, the EC50 at FPR1 (setting [1]) was above 10000 nM.

With `O=C(O)[C@@H]1[C@H](C(=O)NNc2ccc(Br)cc2)[C@@H]2CC[C@H]1C21CC1` (racemic) [Compound 87, (+/−)-(1S,2R,3S,4R)-2-(2-(4-Bromophenyl)hydrazinecarbonyl)spiro[bicyclo[2.2.1]heptane-7,1′-cyclopropane]-3-carboxylic Acid], the EC50 on FPRL1 is 456 nM; at FPR1 (setting [1]), above 10000 nM. The “FPRL1 (rel. eff.)” value at FPRL1 is reported as 0.89.

For `O=C(O)[C@@H]1[C@H](C(=O)Nc2ccc(OC(F)(F)F)cc2)[C@@H]2CC[C@H]1C21CC1` (racemic) [Compound 41, (+/−)-(1R,2S,3R,4S)-3-((4-(Trifluoromethoxy)phenyl)carbamoyl)spiro-[bicyclo[2.2.1]heptane-7,1′-cyclopropane]-2-carboxylic Acid], the EC50 at FPRL1 was 123 nM; at FPR1 (setting [1]) it was above 10000 nM. On FPRL1, the “FPRL1 (rel. eff.)” value came out at 0.80.

For `CC(C)=C1C2C=CC1C(C(=O)Nc1ccc(I)cc1)C2C(=O)O` (racemic) [Compound 22, (+/−)-(1S,4R,5S,6R)-6-(4-Iodophenylcarbamoyl)[bicyclo[2.2.1]hept[2]ene-7-propan-2-ylidene]-5-carboxylic Acid], the EC50 at FPR1 (setting [2]) worked out at 8030 nM. Moreover, the “FPR1 (rel. eff.)” value on FPR1 (calcium, FLIPR Tetra) is on record as 62.

`CCOC(=O)[C@@H]1[C@H](C(=O)Nc2ccc(Br)cc2)[C@@H]2CC[C@H]1C21CC1` (racemic) [Compound 84, (+/−)-(1S,2R,3S,4R)-Ethyl 2-((4-bromophenyl)carbamoyl)spiro[bicyclo[2.2.1]heptane-7,1′-cyclopropane]-3-carboxylate]: at FPRL1, the EC50 was 1370 nM and the “FPRL1 (rel. eff.)” value is 0.74.

As for `COc1ccccc1NC(=O)[C@H]1[C@@H](C(=O)O)[C@H]2CC[C@@H]1C21CC1` (racemic) [Compound 39, (+/−)-(1R,2S,3R,4S)-3-((2-Methoxyphenyl)carbamoyl)spiro[bicyclo[2.2.1]heptane-7,1′-cyclopropane]-2-carboxylic Acid], on FPRL1, the EC50 is above 3000 nM and the “FPRL1 (rel. eff.)” value turned out to be 1.2.

Consider `CC1(C)[C@@H]2CC[C@H]1[C@@H](C(=O)Nc1ccc(Br)cc1)[C@H]2C(N)=O` (racemic) [Compound 54, (+/−)-(1S,2R,3S,4R)—N2-(4-Bromophenyl)-7,7-dimethylbicyclo[2.2.1]heptane-2,3-dicarboxamide], for which the concentration for a half-maximal effect (EC50) at FPR1 (setting [1]) is above 10000 nM.

Regarding `O=C(O)C1C(C(=O)Nc2cccc(C(F)(F)F)c2)C2CCC1C21CC1` (racemic) [Compound 37, (+/−)-(1R,2S,3R,4S)-3-β3-(Trifluoromethyl)phenyl)carbamoyl)spiro[bicyclo-[2.2.1]heptane-7,1′-cyclopropane]-2-carboxylic Acid], at FPRL1, the EC50 came to 978 nM and the “FPRL1 (rel. eff.)” value was 0.86.

As to `O=C1[C@@H]2[C@H](C(=O)N1c1ccc(Br)cc1)[C@@H]1CC[C@H]2C12CC2` [Compound 90, (3aR,4S,7R,7aS)-2-(4-Bromophenyl)-hexahydro-1H-spiro[4,7-methanoisoindole-8,1′-cyclopropane]-1,3(2H)-dione], on FPRL1, the EC50 amounted to 6560 nM and the “FPRL1 (rel. eff.)” value was found to be 0.38.

Turning to `NC(=O)C1C(C(=O)Nc2ccc(Br)cc2)C2C=CC1C21CC1` (racemic) [Compound 47, (+/−)-(1R,4S,5R,6S)—N-5-(4-Bromophenyl)spiro[bicyclo[2.2.1]hept[2]ene-7,1′-cyclopropane]-5,6-dicarboxamide], at FPR1 (setting [1]), the EC50 is above 10000 nM.

Turning to `O=C(O)[C@@H]1[C@H](C(=O)Nc2ccc(Cl)cc2)[C@@H]2CC[C@H]1C21CC1` (racemic) [Compound 11, (+/−)-(1R,2S,3R,4S)-3-(4-Chlorophenylcarbamoyl)spiro[bicyclo[2.2.1]heptane-7,1′-cyclopropane]-2-carboxylic Acid], on FPRL1, the EC50 turned out to be 43 nM and the “FPRL1 (rel. eff.)” value came to 0.86.

For `CN(C)C(=O)C1C(C(=O)Nc2ccc(Br)cc2)C2C=CC1C21CC1` (racemic) [Compound 76, (+/−)-(1S,4S,5R,6S)—N^5-(4-Bromophenyl)-N^6,N^6-dimethylspiro[bicyclo[2.2.1]hept[2]ene]-7,1′-cyclopropane]-5,6-dicarboxamide], on FPRL1, the EC50 is 3720 nM and the “FPRL1 (rel. eff.)” value is 0.5.

`O=C(O)[C@@H]1[C@H](C(=O)Nc2ccc(Cl)c(Cl)c2)[C@@H]2CC[C@H]1C21CC1` (racemic) [Compound 38, (+/−)-(1R,2S,3R,4S)-3-((3,4-Dichlorophenyl)carbamoyl)spiro[bicyclo[2.2.1]heptane-7,1′-cyclopropane]-2-carboxylic Acid]: on FPRL1, the EC50 turned out to be 498 nM and the “FPRL1 (rel. eff.)” value is 1.00.

As for `N#Cc1ccc(-c2ccc(NC(=O)C3C(C(=O)O)C4C=CC3C43CC3)cc2)cc1` (racemic) [Compound 30, (+/−)-(1S,4R,5S,6R)-6-((4′-Cyano-[1,1′-biphenyl]-4-yl)carbamoyl)spiro[bicyclo-[2.2.1]hept[2]ene-7,1′-cyclopropane]-5-carboxylic Acid], on FPRL1, the EC50 was 2880 nM and the “FPRL1 (rel. eff.)” value is 0.97.

As to `COC(=O)C1C(C(=O)Nc2ccc(Br)cc2)C2CCC1C21CC1` (racemic) [Compound 83, (+/−)-(1S,4S,5R,6S)-Methyl 2-((4-bromophenyl)carbamoyl)spiro[bicyclo[2.2.1]heptane-7,1′-cyclopropane]-3-carboxylate], on FPRL1, the EC50 turned out to be 1680 nM and the “FPRL1 (rel. eff.)” value was determined as 0.68.

Turning to `COc1ccccc1NC(=O)C1C(C(=O)O)C2C=CC1C21CC1` (racemic) [Compound 29, (+/−)-(1S,4R,5S,6R)-6-((2-Methoxyphenyl)carbamoyl)spiro[bicyclo[2.2.1]hept[2]ene-7,1′-cyclopropane]-5-carboxylic Acid], at FPRL1, the EC50 was 3170 nM and the “FPRL1 (rel. eff.)” value is on record as 1.1.

Regarding `COC(=O)C1C(C(=O)Nc2ccc(I)cc2)C2C=CC1C21CC1` (racemic) [Compound 16, Methyl(+/−)-(1S,4R,5S,6R)-6-(4-Iodophenylcarbamoyl)spiro[bicyclo[2.2.1]hept[2]ene-7,1′-cyclopropane]-5-carboxylate], on FPRL1, the EC50 was 403 nM and the “FPRL1 (rel. eff.)” value came to 0.72.

As for `CC1(C)[C@@H]2CC[C@H]1[C@@H](C(=O)Nc1ccc(I)cc1)[C@H]2C(=O)O` (racemic) [Compound 12, (+/−)-(1R,2S,3R,4S)-3-(4-Iodophenylcarbamoyl)-7,7-dimethylbicyclo[2.2.1]heptane-2-carboxylic Acid], the EC50 on FPR1 (setting [2]) was 343 nM. The “FPR1 (rel. eff.)” value on FPR1 (calcium, FLIPR Tetra) worked out at 68.

The values are drawn from patent US8618163B2, “Derivatives of cycloalkyl- and cycloalkenyl-1,2-dicarboxylic acid compounds having formyl peptide receptor like-1 (FPRL-1) agonist or antagonist activity” (Allergan, Inc., priority 2010, dated 2013).
